Test results reported in PubChem BioAssay (NCI).
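96-well plates; 48 h exposure; 5 concentrations. Endpoints by linear interpolation between flanking doses. Not reached: highest tested concentration assigned. TGI denotes the concentration required for complete inhibition of growth.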

Columns and labels:
Assay in all cases: NCI anticancer screen, dose series, 48 h
[1] = system: ACHN renal
[2] = system: M14 melanoma
[3] = system: EKVX NSCLC
[4] = system: NCI-H226 lung
[5] = system: MCF7 breast
[6] = system: RXF 393 renal
[7] = system: HOP-92 NSCLC
[8] = system: DU-145 prostate
[9] = system: SK-MEL-2 melanoma
[10] = system: SNB-19 CNS
[11] = system: CCRF-CEM leukemia
[12] = system: SF-268 CNS
[13] = system: SN12C renal
[14] = system: OVCAR-5 ovarian
[15] = system: NCI-H460 lung

Structure (SMILES)	TGI [1]	TGI [2]	TGI [3]	TGI [4]	TGI [5]	TGI [6]	TGI [7]	TGI [8]	TGI [9]	TGI [10]	TGI [11]	TGI [12]	TGI [13]	TGI [14]	TGI [15]
N=C1OC(CN2CCN(c3ccccc3)CC2)CN1C(=S)Nc1ccccc1 (stereo not given)	> 100 µM	> 100 µM	> 100 µM	> 100 µM	> 100 µM	> 100 µM	> 100 µM	> 100 µM	> 100 µM	> 100 µM	> 100 µM	> 100 µM	> 100 µM	> 100 µM	> 100 µM
O=C(O[C@@H](/C=C/c1ccccc1)P1(=O)N(Cc2ccccc2)[C@H]2CCCC[C@@H]2N1Cc1ccccc1)c1ccccc1	6.91 µM	> 100 µM	> 100 µM	13.2 µM	6.77 µM	7.85 µM	45.2 µM	> 100 µM	3.98 µM	> 100 µM	17.9 µM	> 100 µM	6.74 µM	> 100 µM	5.26 µM
O=c1cc(N=Nc2ccc(Br)cc2)[nH]c(=S)[nH]1	40.8 µM	29.1 µM	39.6 µM	> 100 µM	42.7 µM	45.4 µM	50.5 µM	> 100 µM	33.3 µM	> 100 µM	54.5 µM	> 100 µM	> 100 µM	> 100 µM	> 100 µM
C=C=C(CC1CCCCC1=O)S(=O)(=O)c1ccccc1 (stereo not given)	> 10 µM	> 10 µM	> 10 µM	> 10 µM	> 10 µM	> 10 µM	> 10 µM	> 10 µM	> 10 µM	> 10 µM	7.24 µM	> 10 µM	> 10 µM	> 10 µM	> 10 µM
CC(Nc1ncc2c(n1)-c1ccccc1OC2)C(=O)O (stereo not given)	> 100 µM	> 100 µM	> 100 µM	> 100 µM	> 100 µM	> 100 µM	> 100 µM	> 100 µM	> 100 µM	> 100 µM	> 100 µM	> 100 µM	> 100 µM	> 100 µM	> 100 µM
CC(ON(C(c1ccccc1)C(C)C)C(C)(C)C)c1ccccc1 (stereo not given)	29.3 µM	49.2 µM	29 µM	36.6 µM	30 µM	31.2 µM	40.3 µM	32.8 µM	34.4 µM	35.9 µM	39.3 µM	52.2 µM	32.5 µM	29.8 µM	39.1 µM
C=CCN(c1cc(OCc2ccccc2)c2[nH]cc(C)c2c1)S(C)(=O)=O	> 100 µM	> 100 µM	67.9 µM	> 100 µM	> 100 µM	71.4 µM	> 100 µM	> 100 µM	> 100 µM	> 100 µM	> 100 µM	> 100 µM	> 100 µM	> 100 µM	> 100 µM
COC(=O)C(N)CCCC(N)C(=O)NC(C)C(=O)NC(CCC(=O)NCCNCCNc1c2ccccc2nc2cccc([N+](=O)[O-])c12)C(N)=O (stereo not given)	> 61.1 µM	26.2 µM	32.9 µM	39.4 µM	58.5 µM	28.5 µM	23.8 µM	> 66.1 µM	30.6 µM	> 67.7 µM	> 50.9 µM	10.7 µM	39.5 µM	> 100 µM	55 µM
COc1ccc(C2NC(=S)Nc3c2c(=O)oc2c3ccc3ccccc32)cc1 (stereo not given)	> 100 µM	> 100 µM	> 100 µM	> 100 µM	> 100 µM	> 100 µM	> 100 µM	> 100 µM	> 100 µM	> 100 µM	> 100 µM	> 100 µM	> 100 µM	> 100 µM	> 100 µM
CC(NC(=O)/C(=C/c1ccccc1)NC(=O)c1ccccc1)C(=O)O (stereo not given)	> 100 µM	> 100 µM	> 100 µM	99.5 µM	> 100 µM	> 100 µM	> 100 µM	> 100 µM	> 100 µM	> 100 µM	> 100 µM	> 100 µM	> 100 µM	> 100 µM	> 100 µM
Oc1ccc(O)c(CNc2ccc(C(O)C(F)(F)F)cc2)c1 (stereo not given)	26.6 µM	35.5 µM	27.8 µM	84.1 µM	69.2 µM	26.7 µM	27.7 µM	28.5 µM	88 µM	> 100 µM	33.5 µM	66 µM	47.5 µM	40.8 µM	47.3 µM
O=c1[nH]c(Cc2ccccc2)nc2c1sc1nc3ccccc3n12	> 100 µM	> 100 µM	> 100 µM	> 100 µM	> 100 µM	> 100 µM	> 100 µM	> 100 µM	> 100 µM	> 100 µM	> 100 µM	> 100 µM	> 100 µM	> 100 µM	> 100 µM
